# Laboratory results taken from article PMC9675574 (JCI Insight, 2022).
# Test system: cerulein-induced pancreatitis in T7K24R mice
# Experiment: Cerulein-induced pancreatitis in T7K24R mice
# Assay type: in vivo, mouse
# Details: single oral gavage 200 mg/kg; 15 treated mice
# Experimental: Pancreatitis was induced in T7K24R mice with 8 hourly intraperitoneal injections of the secretagogue peptide cerulein used in a dose of 50 μg/kg. Cerulein (catalog number C9026, MilliporeSigma) was dissolved in sterile normal saline at 10 μg/mL concentration. Mice were sacrificed 1, 24, 48, 72, or 96 hours from the first cerulein injection, as indicated, and the pancreas and blood were harvested. Details of histological analysis and measurement of plasma amylase (4 μL assayed) were reported previously ([29]–[31]).
# Control mice were given gavage of the vehicle solution (Captisol; see below) or regular chow.
# Captisol (β-cyclodextrin sulfobutyl ethers, sodium salts, lot number NC-04A-180185) was obtained from Cydex Pharmaceuticals (through Thermo Fisher Scientific) and was dissolved in sterile normal saline (3.5 g in 10 mL). […] The mixture was then compressed into pellets using the barrel of a 10 mL plastic syringe and a plunger. The prodrug-containing pellets were allowed to dry at 24°C for 2 days and stored at 4°C until use.
smiles,measurement,value
[H]/N=C(/N)c1ccc(NCc2nc3cc(C(=O)N(CCC(=O)O)c4ccccn4)ccc3n2C)cc1 [dabigatran],share of mice with limited efficacy (less than 25% of normal acini preserved),30%
